The source of these data is PubChem BioAssay AID1996.

Converted amounts (≈) assume the structure as drawn. Where only a bound is given, the exact number is not on record here.

As usually defined, the kinetic solubility is solubility judged after dilution from a stock solution rather than from solid.

The conditions of this data set: buffer; pH 7.4; 200.0 µM.
As for `Nc1cc(-c2ccncc2)c[nH]c1=O`, the solubility (kinetic) was greater than 0.0281 mg/mL. `COCC(C)NC(=S)N1CCN(c2ccccc2Cl)CC1` (centres undefined) came in with a solubility (kinetic) of 0.0485 mg/mL (≈ 148 µM). `COc1ccc(CNCc2ccncc2)c(OC)c1.Cl` came in with a solubility (kinetic) greater than 0.0442 mg/mL.

Take `CC(=O)Nc1ccc(OCC(=O)NCCc2ccccc2)cc1`: the kinetic solubility was greater than 0.0469 mg/mL. In the case of `CCCn1c(SCC(=O)NC2CCCC2)nnc1C(C)C`, the kinetic solubility was greater than 0.0466 mg/mL. For `CC(=O)NC(Cc1ccccc1)C(C)=O` (centres undefined) the value was greater than 0.0308 mg/mL; for `Fc1ccccc1CNc1nc(-c2cccnc2)nc2ccccc12`, 0.009 mg/mL (≈ 27.2 µM). With `CCOC(=O)c1[nH]c(C)c(C(=O)/C=C/c2ccc(C(=O)O)cc2)c1C`, the kinetic solubility was greater than 0.0512 mg/mL. For `Cc1cc(=O)[nH]c(SCC(=O)Nc2ccc(F)cc2)c1C#N` the value was greater than 0.0476 mg/mL. Molecule `CC1(C)CC(NC(=O)c2ccc(-c3ccc([N+](=O)[O-])cc3)o2)CC(C)(C)N1` registered a kinetic solubility of 0.0411 mg/mL (≈ 111 µM).

On to `COc1cc(OC)c(C(=O)OCC(=O)Nc2ccc(N3CCOCC3)cc2)cc1OC`, for which the kinetic solubility is 0.0065 mg/mL (≈ 15.1 µM).

In the case of `CSc1ccccc1NC(=S)NC1CCCCC1`, the solubility (kinetic) came to 0.03 mg/mL (≈ 107 µM). Molecule `CC(=O)Nc1ccc(NS(=O)(=O)c2cccc3nonc23)cc1` displayed a kinetic solubility greater than 0.0498 mg/mL.

The molecule `Cc1cc(=O)[nH]c(NCc2ccccc2)n1` yielded a kinetic solubility of 0.0306 mg/mL (≈ 142 µM).

Regarding `Cc1ccc(C(=O)CCC(=O)NC2=NCCS2)cc1`, the kinetic solubility was determined as 0.0108 mg/mL (≈ 39.1 µM).

Consider `COc1cccc(NC(=O)c2ccc3c(c2)OCO3)c1`, for which the kinetic solubility is greater than 0.0407 mg/mL. The molecule `O=c1oc2ccccc2c(NCc2ccc(Cl)cc2)c1[N+](=O)[O-]` gave a kinetic solubility of 0.0014 mg/mL (≈ 4.23 µM). For `O=C(Nc1nnc(C2CC2)s1)C1COc2ccccc2O1` (centres undefined), the kinetic solubility was greater than 0.0455 mg/mL. With `Cc1ccc(C)c(NC(=O)CCN2CC(C)CC(C)C2)c1` (centres undefined), the solubility (kinetic) came out at 0.0327 mg/mL (≈ 113 µM). In turn, `Cc1ccccc1C(=O)Nc1ccc(S(=O)(=O)N2CCOCC2)cc1` displayed a kinetic solubility greater than 0.0541 mg/mL.

Take `CC(=O)N1CCN(c2c(F)c(F)c(C(F)(F)F)c(F)c2F)CC1`: the solubility (kinetic) is 0.0479 mg/mL (≈ 139 µM). The molecule `CC(C)(C)C(=O)N1CCN(c2nc3ccc(Cl)cc3s2)CC1` had a kinetic solubility of 0.0023 mg/mL (≈ 6.81 µM). `Cc1ccc(-c2csc(NC(=O)c3ccc(F)cc3)c2C(=O)O)cc1` returned a solubility (kinetic) greater than 0.0533 mg/mL. Regarding `COc1ccc(-c2nc(=S)n3ccsc3n2)cc1OC`, the solubility (kinetic) amounted to 0.0044 mg/mL (≈ 14.4 µM). The molecule `COc1ccc(OC)c(CNC(=O)CCc2cn(C)c3ccccc23)c1` showed a solubility (kinetic) of 0.0127 mg/mL (≈ 36 µM). Then `O=C(C#Cc1ccccc1)Nc1cccc(F)c1`, with 0.0087 mg/mL (≈ 36.4 µM); and `CC(C)c1ccc(N2C(=O)C(Cl)=C(N3CCOCC3)C2=O)cc1`, with 0.0092 mg/mL (≈ 27.5 µM); and `O=C(C(=O)N1CCCCCC1)c1c[nH]c2ccccc12`, with greater than 0.0405 mg/mL.

Molecule `Cc1occc1C(=O)Nc1cccc([N+](=O)[O-])c1C` came in with a kinetic solubility of 0.036 mg/mL (≈ 138 µM). With `Cc1ccc(C(=O)CN2C(=O)NC3(CCCCC3C)C2=O)s1` (centres undefined), the kinetic solubility amounted to 0.0332 mg/mL (≈ 104 µM).

`CCC(NC(=O)C1CCCC1)c1ccccc1` (centres undefined) came in with a kinetic solubility greater than 0.0347 mg/mL. `Cc1cccc(Nc2nc(OCC#N)nc(N(C)C)n2)c1`: the solubility (kinetic) turned out to be 0.0028 mg/mL (≈ 9.85 µM). `O=C(CSc1nccc(=O)[nH]1)Nc1ccc(Oc2ccccc2)cc1` gave a kinetic solubility of 0.0115 mg/mL (≈ 32.5 µM). `O=C(O)Cn1cc(C(=O)C(F)(F)F)c2ccccc21` returned a solubility (kinetic) greater than 0.0407 mg/mL. For `CC(CC(=O)O)C(=O)c1ccc(Cl)c([N+](=O)[O-])c1` (centres undefined), the solubility (kinetic) was greater than 0.0407 mg/mL. In turn, `Cc1ccc(-c2nc(-c3ccccn3)no2)cc1[N+](=O)[O-]` came in with a kinetic solubility of 0.0074 mg/mL (≈ 26.2 µM). In turn, `N#Cc1ccc(-c2cn3c(n2)SCC3)cc1` displayed a kinetic solubility greater than 0.0341 mg/mL.

In turn, `CC1=C(C(=O)OCCC(C)C)C(c2ccc3c(c2)OCO3)NC(=O)N1` (centres undefined) gave a kinetic solubility of 0.0062 mg/mL (≈ 17.9 µM). Molecule `O=Cc1ccc(C(=O)OCC(=O)Nc2ccc(F)cc2F)cc1` yielded a solubility (kinetic) of 0.0037 mg/mL (≈ 11.6 µM). `CCCOc1ccc(CC(=O)NCCc2ccccc2)cc1OC` returned a kinetic solubility of 0.0203 mg/mL (≈ 62 µM). `COc1ccc2nc(COC(=O)c3cccs3)c(C(C)=O)[n+]([O-])c2c1` displayed a solubility (kinetic) of 0.0016 mg/mL (≈ 4.46 µM).

`CCc1ccccc1NC(=S)NCCSc1ccc(Cl)cc1` showed a kinetic solubility of 0.0018 mg/mL (≈ 5.13 µM). For `CC(=O)c1cnc(-c2ccccn2)s1` the value was 0.0283 mg/mL (≈ 139 µM); for `O=C(CNC(=O)c1ccccc1)OCN1C(=O)c2ccccc2C1=O`, greater than 0.0507 mg/mL. As to `CSc1ccccc1NC(=S)NC1CCCC1`, the solubility (kinetic) was greater than 0.04 mg/mL.

`COc1ccc(Nc2nc(N)c([N+](=O)[O-])c(N3CCOCC3)n2)cc1` yielded a solubility (kinetic) of 0.0212 mg/mL (≈ 61.2 µM). `COC(=O)c1c(C)[nH]c(C(=O)OCC(=O)c2c(N)n(CC(C)C)c(=O)n(C)c2=O)c1C` returned a kinetic solubility of 0.014 mg/mL (≈ 32.2 µM).

In turn, `Cc1ccc(N2CC(O)Cn3c2nc2c3c(=O)[nH]c(=O)n2C)cc1` (centres undefined) had a solubility (kinetic) of 0.0162 mg/mL (≈ 49.5 µM).

For `Cn1c2ccccc2c2cc([N+](=O)[O-])ccc21`, the solubility (kinetic) was less than 0.0002 mg/mL. For `Cc1[nH]c(=O)c(S(=O)(=O)c2ccccc2)c(C)c1Cl`, the solubility (kinetic) is 0.0442 mg/mL (≈ 148 µM). For `Cc1ccc(S(=O)(=O)c2nc(-c3cccs3)oc2N2CCC(C(N)=O)CC2)cc1` the value was greater than 0.0647 mg/mL; for `O=C(CCCCCl)Nc1c2c(nc3ccccc13)CCC2`, 0.0316 mg/mL (≈ 104 µM); for `O=C(NCc1ccco1)c1cccc(Br)c1`, 0.039 mg/mL (≈ 139 µM). For `CC(=O)N(Cc1ccccc1)c1ccccc1C(=O)O` the value was greater than 0.0404 mg/mL; for `COC(=O)c1ccccc1NC(=O)CCn1c(=O)oc2ccccc21`, greater than 0.0511 mg/mL. Consider `Cc1cccc(NC(=O)CCc2ccccc2)c1C`, for which the kinetic solubility turned out to be 0.0118 mg/mL (≈ 46.6 µM). For `COc1cc(NC(=O)COC(=O)c2[nH]c(C)c(C(C)=O)c2C)cc(OC)c1` the value was 0.004 mg/mL (≈ 10.7 µM); for `CCCCCn1c(N2CCCC2)nc2c1c(=O)n(C)c(=O)n2C`, greater than 0.0479 mg/mL. `Cn1cncc1C(=O)c1ccccc1` showed a solubility (kinetic) greater than 0.0279 mg/mL. Regarding `Cc1[nH]c(=O)c(Cc2ccccc2)c(O)c1C#N`, the solubility (kinetic) was greater than 0.036 mg/mL. Then `CCN1C(=O)CC(c2ccc(OC(C)C)cc2)C1=O` (centres undefined), with greater than 0.0392 mg/mL; and `COc1ccc(C2C(C(=O)O)c3ccccc3C(=O)N2Cc2ccco2)cc1` (centres undefined), with greater than 0.0566 mg/mL; and `CCOc1ccc(NC(=O)CN2C(=O)NC(CCc3ccccc3)C2=O)cc1OCC` (centres undefined), with 0.0088 mg/mL (≈ 20.7 µM). For the molecule `Cc1[nH]c2c(C)cccc2c1CN1CCC(CO)(Cc2ccccc2)CC1`, the solubility (kinetic) came out at 0.0288 mg/mL (≈ 79.4 µM).

Take `Cc1ccc(S(=O)(=O)NC(=O)Nc2ccc(OC(F)F)cc2)cc1`: the kinetic solubility came out at 0.0523 mg/mL (≈ 147 µM). Molecule `Cc1ccc(S(=O)(=O)N2CCN(C(=O)COC(=O)c3cncc(Br)c3)CC2)c(C)c1` registered a kinetic solubility of 0.0053 mg/mL (≈ 10.7 µM). `CSc1cccc(NC(=S)Nc2ccc(F)cc2)c1`: the kinetic solubility worked out at 0.0345 mg/mL (≈ 118 µM). Regarding `O=C(CCc1ccccc1O)NC1CCCc2ccccc21` (centres undefined), the kinetic solubility was greater than 0.0443 mg/mL. Consider `O=[N+]([O-])c1ccc(NCCCN2CCOCC2)nc1`, for which the solubility (kinetic) is greater than 0.0399 mg/mL. `CN(C)S(=O)(=O)c1ccc(NC(=O)Cn2ccsc2=N)cc1` had a kinetic solubility of 0.048 mg/mL (≈ 141 µM). `Cc1cc(C(=O)Nc2ccc3ccccc3c2)c(C)o1` came in with a solubility (kinetic) of 0.0018 mg/mL (≈ 6.78 µM).

As for `COC(=O)CCC(=O)NC(=S)Nc1ccccc1F`, the kinetic solubility amounted to 0.0368 mg/mL (≈ 129 µM).

The molecule `COc1cccc(-n2ccnc2SCC(=O)Nc2cc(C)on2)c1` showed a solubility (kinetic) of 0.0375 mg/mL (≈ 109 µM).

`COc1ccc(/C=C/C(=O)OCC(=O)NCc2ccccc2Cl)cc1OC` displayed a solubility (kinetic) of 0.0083 mg/mL (≈ 21.3 µM).
